Patent US8852628B1, “Transdermal drug delivery system for diclofenac” (Noven Pharmaceuticals, Inc., priority 2009, dated 2014)

Assay: in-vitro permeation study utilizing modified Franz cells (flux)
Format: in vitro ADME, human
Conditions: diclofenac sodium, acid and potassium as single entities in formulations similar to the examples; particularly with oleic acid and dipropylene glycol
Method: The flux data was collected from an in-vitro permeation study utilizing modified Franz cells with stratum corneum obtained from human cadaver skin by the heat separation technique. The receiver solution for this study was 0.9% NaCl with 0.01% NaN3 in deionized water. Franz cells were maintained at about 32° C. for the duration of this study. Flux samples were analyzed by HPLC.

O=C(O)Cc1ccccc1Nc1c(Cl)cccc1Cl [diclofenac potassium]
flux rate, drug forms fluxed as single entities: highest rate
